Experimental findings from PMC12402003 (Frontiers in Nutrition, 2025) are described below.

Data set [1] deals with Caco-2/HepG2 co-culture model. Description: Lipid metabolites and AST/ALT in OA-induced Caco-2/HepG2 co-culture model. Particulars: for reduction in TC content: HepG2 on BL side after transport by Caco-2, 50 μM. The class given is cell-based, human. The protocol: Caco-2 and HepG2 cells were cultured separately at 37°C with 5% CO2 in DMEM medium containing 10% fetal bovine serum, 50 U/mL penicillin, and 50 μg/mL streptomycin. Caco-2 cells were cultured in 96-well plates for 24 h and harvested with trypsin–EDTA to seed to the AP side (1 × 10^5 cells/mL, 500 μL) in monolayers. 1,500 μL of Minimum Essential Medium (MEM) was simultaneously added to the BL compartment. HepG2 cells were seeded to the BL compartment at the day 15. The total culture period was 18 d.
The co-culture cells were collected by the previous method from the above mentioned, and the cells were lysed on ice for 30 min using IP cell lysis buffer (20 mM Tris pH 7.5, 200 mM NaCl, 10% glycerol, 0.2 mM DTT, 0.1 mM EDTA, 1 mM protease inhibitor). The contents of TG, T-CHO, LDL-C, HDL-C, AST, and ALT from HepG2 were measured following the test kit instructions. Intracellular protein content was measured to calibrate the levels of relevant metabolites using the BCA Protein Quantitation Kit (Beyotime Biotechnology).

Another data set concerns the target MRP2 (Homo sapiens, UniProt Q92887). Description: Bidirectional Caco-2 transport with probenecid (MRP inhibitor). The settings on record: for ER (efflux rate) / Papp (AP → BL) / Papp (BL → AP): 50 μmol/L, + Prob (probenecid 1 mM); for substrate of MRP2: bidirectional assay with probenecid 1 mM. On the procedure: Transport assay: The monolayers were pre-incubated at 37°C for 30–40 min with 5% CO2 in a pre-warmed media, which contained Hanks Balanced Salt solution (HBSS, BioWhittaker), HEPES buffer and D-glucose. For the transport of apical (AP) side to basolateral (BL) side, the media was removed after pre-incubation and 0.5 mL of polyphenols was added to the AP side. 1.5 mL of HBSS were added to the BL side. Then 200 μL of samples were taken from the BL side at 30, 60, 90, 120 and 150 min, respectively. The BA sample volumes removed were therewith replenished with same volumes of the HBSS solution. For the transport of BL to AP, polyphenols were added to BL and samples were taken from AP at a series of time points as above mentioned. The TEER was measured from the beginning to the end of the assay.
Caco-2 cells (1×10^5 cells/well) were cultured in 96-well plates for 24 h until differentiation, with a TEER value exceeding 400 Ω·cm^2. Bidirectional transport experiments from AP to BL or from BL to AP were performed as mentioned in the transport assay. The apparent permeability coefficients, cumulative release and initial concentrations and efflux rates were determined. In brief, the total transport time was set to 150 min. For AP to BL transport, 0.5 mL of polyphenols were added to AP with 1.5 mL of HBSS to the BL side. 200 μL of samples were collected from BL at different time points (30, 60, 90, 120, and 150 min). For BL to AP transport, polyphenols were added to BL and samples were collected from AP as the mentioned above.

The next data set concerns Caco-2 cells. Description: MTT cell viability assay in Caco-2 cells. Format: cell-based, human. Particulars: 24 h; for cell viability: 100 μM, compared to control (0 μM); for change in cell vitality: concentrations below 50 μM. The protocol: Cell culture: […] Subsequently, the supernatant was removed and 200 μL of MTT solution (0.1 mg/mL) was added to each well to incubate for an additional 4 h (200 μL for Caco-2 cells, 100 μL for HepG2 cells, both at a concentration of 0.1 mg/mL). Finally, formazan crystals were completely dissolved in DMSO in a shaker for 10 min and the absorbance was measured at a wavelength of 490 nm using a microplate absorbance reader (FLUOstar Omera, BMG Labtech, Germany). Cell viability was determined using the following equation: Cell viability (%) = (OD sample/OD control) × 100, where OD is the optical density. The absorbance values for drug fractions […], catechin, and […]-catechin) were compared to those of untreated culture (control). Each treatment was set up in triplicate.

A further data set has as its system Pparγ. The data set is described as follows: Western blot of PPARγ protein in Caco-2/HepG2 co-culture. Format: cell-based, human. The settings on record: OA-induced co-culture, 50 μM, 24 h; compared vs. OA. On the procedure: Cells from the co-culture model were lysed and supernatants were collected. The protein concentrations were determined using the BCA Protein Quantitation Kit. Then electrophoresis of samples was conducted using a SDS-PAGE kit (Beyotime Biotechnology) following the manufacturer’s instructions and transferred to poly-vinylidene difluoride (PVDF) membrane. Next, membranes were incubated in 5% nonfat milk to block non-specific antibody binding for 30 min at room temperature and followed by incubating with primary antibodies and secondary antibodies. Chemiluminescence based-images of the blots were acquired using ImageQuant LAS 500 system (GE, United States). Protein bands were quantified using ImageJ (version 1.53a) software. The changes in expression levels of these proteins detected finally are used to evaluate the sample’s effect on lipid metabolism.

Chain of MRP2 (Q92887 whole entry): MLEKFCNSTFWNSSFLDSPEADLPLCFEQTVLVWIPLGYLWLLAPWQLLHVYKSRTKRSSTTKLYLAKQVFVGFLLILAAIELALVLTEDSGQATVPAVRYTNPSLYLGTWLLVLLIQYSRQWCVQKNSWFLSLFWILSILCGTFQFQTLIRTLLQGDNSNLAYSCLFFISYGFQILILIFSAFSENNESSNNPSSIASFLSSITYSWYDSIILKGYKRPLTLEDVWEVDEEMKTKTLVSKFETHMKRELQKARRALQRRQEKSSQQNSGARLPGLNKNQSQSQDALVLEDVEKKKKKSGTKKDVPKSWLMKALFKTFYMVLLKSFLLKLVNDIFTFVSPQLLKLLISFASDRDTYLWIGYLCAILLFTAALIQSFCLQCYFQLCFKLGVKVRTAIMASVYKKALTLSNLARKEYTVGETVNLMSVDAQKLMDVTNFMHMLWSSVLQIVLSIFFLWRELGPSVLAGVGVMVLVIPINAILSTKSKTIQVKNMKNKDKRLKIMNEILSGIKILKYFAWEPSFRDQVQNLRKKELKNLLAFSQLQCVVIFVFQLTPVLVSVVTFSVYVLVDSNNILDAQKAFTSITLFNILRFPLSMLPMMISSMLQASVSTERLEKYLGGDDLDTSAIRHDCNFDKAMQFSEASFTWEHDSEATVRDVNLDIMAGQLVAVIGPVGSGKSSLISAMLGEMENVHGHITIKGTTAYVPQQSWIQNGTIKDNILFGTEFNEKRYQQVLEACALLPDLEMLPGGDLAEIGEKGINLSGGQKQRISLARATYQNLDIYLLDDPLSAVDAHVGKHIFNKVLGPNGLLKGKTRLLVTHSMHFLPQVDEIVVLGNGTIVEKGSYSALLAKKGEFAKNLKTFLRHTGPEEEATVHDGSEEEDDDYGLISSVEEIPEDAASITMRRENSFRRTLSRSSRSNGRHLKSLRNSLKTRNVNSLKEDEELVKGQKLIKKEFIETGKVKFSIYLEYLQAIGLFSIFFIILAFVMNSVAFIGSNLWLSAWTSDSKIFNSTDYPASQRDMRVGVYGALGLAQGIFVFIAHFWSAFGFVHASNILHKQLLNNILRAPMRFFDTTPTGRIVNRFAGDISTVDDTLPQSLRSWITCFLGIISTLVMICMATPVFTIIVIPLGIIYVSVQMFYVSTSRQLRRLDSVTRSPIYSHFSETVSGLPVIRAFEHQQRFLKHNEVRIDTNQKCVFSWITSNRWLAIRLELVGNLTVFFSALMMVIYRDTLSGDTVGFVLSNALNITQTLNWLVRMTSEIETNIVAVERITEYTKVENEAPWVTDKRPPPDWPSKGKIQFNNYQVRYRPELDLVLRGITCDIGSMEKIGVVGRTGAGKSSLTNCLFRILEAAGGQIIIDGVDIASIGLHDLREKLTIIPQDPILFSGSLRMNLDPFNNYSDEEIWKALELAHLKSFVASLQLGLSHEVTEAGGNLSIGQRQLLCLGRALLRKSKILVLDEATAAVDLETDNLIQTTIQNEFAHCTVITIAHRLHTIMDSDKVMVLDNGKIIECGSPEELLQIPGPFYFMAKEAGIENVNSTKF

As to `OC[C@H]1O[C@@H](Oc2cc3c(O)cc(O)cc3[o+]c2-c2ccc(O)c(O)c2)[C@H](O)[C@@H](O)[C@@H]1O` [C3G, Cyanidin-3-O-glucoside], in data set [1], the “reduction of ALT level” value was “not observed”, the “reduction of AST level” value is recorded as “not observed” and the “reduction in TC content” value was determined as 7.69%. Further, the “reduction of OA-induced LDL-C increase” value in data set [1] (50 μM) is listed as “did not change”. Further, on MRP2 (30 min), the “ER (efflux rate)” value turned out to be 0.63, the “Papp (AP → BL)” value was 8.47 ± 0.39 ×10^−5 cm /s and the “Papp (BL → AP)” value was 5.31 ± 0.72 ×10^−5 cm /s. Besides, at MRP2 (60 min), the “ER (efflux rate)” value worked out at 0.61, the “Papp (AP → BL)” value is 4.55 ± 0.09 ×10^−5 cm /s and the “Papp (BL → AP)” value is listed as 2.79 ± 0.37 ×10^−5 cm /s. In addition, on MRP2 (90 min), the “ER (efflux rate)” value came to 0.52, the “Papp (AP → BL)” value is reported as 3.12 ± 0.02 ×10^−5 cm /s and the “Papp (BL → AP)” value was 1.62 ± 0.08 ×10^−5 cm /s. Also, at MRP2 (120 min), the “ER (efflux rate)” value worked out at 0.53, the “Papp (AP → BL)” value is given as 2.45 ± 0.03 ×10^−5 cm /s and the “Papp (BL → AP)” value is 1.29 ± 0.09 ×10^−5 cm /s. Also, at MRP2 (150 min), the “ER (efflux rate)” value is recorded as 0.56, the “Papp (AP → BL)” value is 1.83 ± 0.09 ×10^−5 cm /s and the “Papp (BL → AP)” value is recorded as 1.06 ± 0.04 ×10^−5 cm /s. In addition, the “substrate of MRP2” value on MRP2 is given as “not substrates”. Moreover, in the data set with Caco-2 cells, the cell viability came out at 80% and the “change in cell vitality” value is “No significant changes”. In addition, in the data set on Pparγ, the “PPARγ protein expression level (densitometry)” value is listed as 1.03.
As to `O.Oc1cc(O)c2c(c1)O[C@H](c1ccc(O)c(O)c1)[C@@H](O)C2` [catechin], in data set [1], the “reduction of ALT level” value is reported as “not observed”, the “reduction of AST level” value was “not observed” and the “reduction in TC content” value is 7.69%. On MRP2 (30 min), the “ER (efflux rate)” value is listed as 0.58, the “Papp (AP → BL)” value is given as 9.19 ± 0.53 ×10^−5 cm /s and the “Papp (BL → AP)” value is 5.36 ± 0.52 ×10^−5 cm /s. Moreover, at MRP2 (60 min), the “ER (efflux rate)” value turned out to be 0.56, the “Papp (AP → BL)” value is listed as 4.46 ± 0.36 ×10^−5 cm /s and the “Papp (BL → AP)” value is reported as 2.50 ± 0.27 ×10^−5 cm /s. Moreover, on MRP2 (90 min), the “ER (efflux rate)” value stood at 0.52 and the “Papp (BL → AP)” value is reported as 1.64 ± 0.37 ×10^−5 cm /s. Moreover, at MRP2 (120 min), the “ER (efflux rate)” value came to 0.51, the “Papp (AP → BL)” value is 2.48 ± 0.19 ×10^−5 cm /s and the “Papp (BL → AP)” value is 1.27 ± 0.27 ×10^−5 cm /s. Also, at MRP2 (150 min), the “ER (efflux rate)” value stood at 0.48, the “Papp (AP → BL)” value is recorded as 1.93 ± 0.49 ×10^−5 cm /s and the “Papp (BL → AP)” value is 0.98 ± 0.34 ×10^−5 cm /s. On MRP2, the “substrate of MRP2” value is “not substrates”. In addition, in the data set with Caco-2 cells, the cell viability is reported as 80% and the “change in cell vitality” value is listed as “No significant changes”. In addition, the “PPARγ protein expression level (densitometry)” value with Pparγ was 1.08.
